Here are results for 13 molecules from ChEMBL document CHEMBL5241095, “Developments of CRBN-based PROTACs as potential therapeutic agents” (Eur J Med Chem, 2021).

One assay deals with MOLM-13. Nature of the assay: Antiproliferative activity against human MOLM-13 cells assessed as cell growth inhibition. In kind it is functional, cell-based.
For a further assay, the system named is MV4-11. Nature of the assay: Antiproliferative activity against human MV4-11 cells assessed as cell growth inhibition. It counts as functional, cell-based.
The subject of another assay is RS4-11. Description: Antiproliferative activity against human RS4-11 cells assessed as cell growth inhibition. It counts as functional, cell-based.
Assay [1] deals with T1, Protein cereblon/Signal transducer and activator of transcription 3 (Homo sapiens) (UniProt P40763+Q96SW2). Nature of the assay: Protac activity at CRBN/STAT3 in human SU-DHL-1 cells at 250 nM measured after 7 hrs by immunoblotting analysis relative to control. In kind it is cell-based.
T1 sequence (P40763 2-770 limits assumed): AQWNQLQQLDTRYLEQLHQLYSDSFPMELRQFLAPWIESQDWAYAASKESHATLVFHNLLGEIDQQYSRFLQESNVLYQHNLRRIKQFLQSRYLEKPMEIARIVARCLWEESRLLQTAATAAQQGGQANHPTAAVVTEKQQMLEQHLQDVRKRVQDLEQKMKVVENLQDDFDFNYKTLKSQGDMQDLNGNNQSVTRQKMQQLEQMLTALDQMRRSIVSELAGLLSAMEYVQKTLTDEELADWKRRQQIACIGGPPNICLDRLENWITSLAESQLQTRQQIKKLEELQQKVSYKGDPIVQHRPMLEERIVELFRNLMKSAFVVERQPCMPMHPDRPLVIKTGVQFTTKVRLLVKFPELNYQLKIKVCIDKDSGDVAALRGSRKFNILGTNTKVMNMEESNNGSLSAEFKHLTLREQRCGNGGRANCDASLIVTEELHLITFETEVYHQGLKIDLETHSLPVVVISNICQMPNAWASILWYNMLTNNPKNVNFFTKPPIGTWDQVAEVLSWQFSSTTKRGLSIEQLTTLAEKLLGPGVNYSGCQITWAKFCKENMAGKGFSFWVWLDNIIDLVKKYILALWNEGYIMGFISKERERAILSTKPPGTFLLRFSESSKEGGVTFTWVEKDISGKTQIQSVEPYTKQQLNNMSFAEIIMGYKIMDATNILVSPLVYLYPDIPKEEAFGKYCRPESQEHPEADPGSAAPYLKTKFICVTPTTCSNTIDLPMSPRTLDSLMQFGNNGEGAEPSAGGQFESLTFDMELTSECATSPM
T1 sequence (Q96SW2 whole entry partner): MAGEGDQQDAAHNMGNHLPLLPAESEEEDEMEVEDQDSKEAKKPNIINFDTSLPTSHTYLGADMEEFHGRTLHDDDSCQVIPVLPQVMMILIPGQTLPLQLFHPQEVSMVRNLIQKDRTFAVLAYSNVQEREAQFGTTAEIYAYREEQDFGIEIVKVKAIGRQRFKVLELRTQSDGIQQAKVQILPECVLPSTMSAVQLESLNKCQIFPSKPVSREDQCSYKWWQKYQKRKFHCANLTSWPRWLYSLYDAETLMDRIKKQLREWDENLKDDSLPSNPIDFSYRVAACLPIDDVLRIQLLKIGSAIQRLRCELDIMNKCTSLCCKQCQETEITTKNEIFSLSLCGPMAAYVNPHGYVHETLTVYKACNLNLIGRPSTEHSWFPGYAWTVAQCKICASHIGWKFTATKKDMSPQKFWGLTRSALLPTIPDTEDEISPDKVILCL
For assay [2], the target named is T1, Protein cereblon/Signal transducer and activator of transcription 3 (Homo sapiens). Description: Protac activity at CRBN/STAT3 in human DEL cells at 250 nM measured after 7 hrs by immunoblotting analysis relative to control. It counts as cell-based. (In general: A western blot detects proteins with antibodies after separation by electrophoresis.)
The target is the same in assay [3]. Nature of the assay: Protac activity at CRBN/STAT3 in human MOLM16 cells at 250 nM measured after 4 hrs by immunoblotting analysis relative to control. In kind it is cell-based.
For assay [4] the target is unchanged. Description: Protac activity at CRBN/STAT3 in human Ki-JK cells at 250 nM measured after 7 hrs by immunoblotting analysis relative to control. It counts as cell-based.
Another assay has as its system Huh-7. Nature of the assay: Antiproliferative activity against human Huh-7 cells assessed as cell growth inhibition. In kind it is functional, cell-based.
For another assay, the system named is A549. Description: Antiproliferative activity against human A549 cells assessed as cell growth inhibition. It counts as functional, cell-based.
The test system of a further assay is HepG2. Nature of the assay: Antiproliferative activity against human HepG2 cells assessed as cell growth inhibition. It counts as functional, cell-based.
Assay [5] concerns the target von Hippel-Lindau disease tumor suppressor/Tyrosine-protein kinase BTK (Homo sapiens, UniProt Q06187+P40337, C481S). Nature of the assay: Protac activity at VHL/BTK C481S mutant in human NAMALVA cells incubated for 24 hrs by immunoblotting method. In kind it is cell-based.
Assay [6] has as its target von Hippel-Lindau disease tumor suppressor/Tyrosine-protein kinase BTK (Homo sapiens, UniProt Q06187+P40337). Description: Protac activity at VHL/BTK in human NAMALVA cells incubated for 24 hrs by immunoblotting method. In kind it is cell-based.
The target of another assay is Protein cereblon/Basigin (Homo sapiens, UniProt P35613+Q96SW2). Description: Protac activity at CRBN/CD147 in human SK-MEL-28 cells by Western blotting analysis. In kind it is cell-based.
Assay [7] addresses T2, Protein cereblon/Tyrosine-protein kinase BTK (Homo sapiens, UniProt Q06187+Q96SW2). Description: Protac activity at CRBN/BTK in human MINO cells. In kind it is cell-based.
In assay [8] the target is T2, Protein cereblon/Tyrosine-protein kinase BTK. Description: Protac activity at CRBN/BTK in human MINO cells relative to control. It counts as cell-based.
Assay [9] addresses RAC-gamma serine/threonine-protein kinase (Homo sapiens, UniProt Q9Y243). Description: Inhibition of Akt3 (unknown origin).
Assay [10] addresses RAC-alpha serine/threonine-protein kinase (Homo sapiens, UniProt P31749). Description: Inhibition of Akt1 (unknown origin).
The target in assay [11] is Protein cereblon/Protein deacetylase HDAC6 (Homo sapiens, UniProt Q9UBN7+Q96SW2). Description: Protac activity at CRBN/HDAC6 in human MM1.S cells incubated for 5 hrs by ELISA analysis. It counts as cell-based. For orientation: In an ELISA, binding on a coated surface is turned into a signal by an enzyme label.
The target in assay [12] is Protein cereblon/Poly [ADP-ribose] polymerase 1 (Homo sapiens) (UniProt P09874+Q96SW2). Description: Protac activity at CRBN/PARP1 in human SW620 cells at lower than 100 nM relative to control. It counts as cell-based.
The subject of the next assay is PC-3. Nature of the assay: Antiproliferative activity against human PC-3 cells assessed as inhibition of cell growth. It counts as functional, cell-based.
Assay [13] is described as follows: Antiproliferative activity against human MCL cells assessed as cell growth inhibition. In kind it is functional, cell-based.
For the next assay, the target named is Protein cereblon (Homo sapiens, UniProt Q96SW2). Description: Binding affinity to CRBN (unknown origin) by Tr-FRET assay.
Sequence of Protein cereblon (Q96SW2 whole entry): as the sequence (Q96SW2 whole entry partner) above
Assay [14] concerns the target Protein cereblon/Interleukin-1 receptor-associated kinase 4 (Homo sapiens) (UniProt Q9NWZ3+Q96SW2). Nature of the assay: Protac activity at CRBN/IRAK4 in HEK293T cells at 405 nM measured after 24 hrs by immunoblotting analysis relative to control. In kind it is cell-based.
Assay [15] deals with T3, Protein cereblon/Bcl-2-like protein 1 (Homo sapiens, UniProt Q07817+Q96SW2). Nature of the assay: Protac activity at CRBN/BCL-XL in human WI-38 cells. In kind it is cell-based.
Assay [16] concerns the target T3, Protein cereblon/Bcl-2-like protein 1. Description: Protac activity at CRBN/BCL-XL in human WI-38 cells relative to control. In kind it is cell-based.
Target sequence in this assay (Q07817 whole entry, looked up): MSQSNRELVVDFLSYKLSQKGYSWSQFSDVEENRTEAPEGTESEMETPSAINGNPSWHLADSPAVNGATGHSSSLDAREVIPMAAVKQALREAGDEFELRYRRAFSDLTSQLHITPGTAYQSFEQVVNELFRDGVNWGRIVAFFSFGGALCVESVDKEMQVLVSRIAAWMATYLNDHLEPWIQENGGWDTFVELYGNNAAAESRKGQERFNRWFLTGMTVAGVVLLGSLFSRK
Target sequence in this assay (Q96SW2 whole entry, looked up): as the sequence (Q96SW2 whole entry partner) above

Structures are written as SMILES. pIC50, pKd: −log10 of the molar value. Bounds are passed on as bounds.

Sequence of von Hippel-Lindau disease tumor suppressor/Tyrosine-protein kinase BTK (Homo sapiens, UniProt Q06187+P40337, C481S) (P40337 whole entry): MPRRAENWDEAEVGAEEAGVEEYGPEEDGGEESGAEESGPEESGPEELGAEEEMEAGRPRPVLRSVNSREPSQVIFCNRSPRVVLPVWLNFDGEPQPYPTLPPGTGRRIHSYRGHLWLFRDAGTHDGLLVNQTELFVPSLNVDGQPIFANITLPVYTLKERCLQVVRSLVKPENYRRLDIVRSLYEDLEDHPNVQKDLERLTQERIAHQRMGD
Sequence of von Hippel-Lindau disease tumor suppressor/Tyrosine-protein kinase BTK (Homo sapiens, UniProt Q06187+P40337, C481S) (Q06187 2-659 C481S limits assumed): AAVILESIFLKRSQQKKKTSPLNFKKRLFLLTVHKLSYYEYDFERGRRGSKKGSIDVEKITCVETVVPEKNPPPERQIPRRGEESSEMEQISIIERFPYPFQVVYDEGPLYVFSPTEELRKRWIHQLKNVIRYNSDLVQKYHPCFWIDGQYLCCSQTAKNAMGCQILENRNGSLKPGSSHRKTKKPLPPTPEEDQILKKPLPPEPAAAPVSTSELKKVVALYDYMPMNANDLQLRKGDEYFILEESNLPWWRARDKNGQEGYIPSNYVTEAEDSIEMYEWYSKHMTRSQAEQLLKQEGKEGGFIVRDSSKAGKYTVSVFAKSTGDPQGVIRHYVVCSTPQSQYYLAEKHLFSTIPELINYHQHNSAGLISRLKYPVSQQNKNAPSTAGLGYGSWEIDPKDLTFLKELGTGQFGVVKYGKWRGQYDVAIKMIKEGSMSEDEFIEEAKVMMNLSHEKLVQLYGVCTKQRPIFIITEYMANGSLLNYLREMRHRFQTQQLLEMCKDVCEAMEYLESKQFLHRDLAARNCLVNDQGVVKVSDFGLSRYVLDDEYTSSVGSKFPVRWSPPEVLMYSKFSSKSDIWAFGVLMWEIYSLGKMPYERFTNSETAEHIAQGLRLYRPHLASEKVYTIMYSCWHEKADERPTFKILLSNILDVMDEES
Sequence of Protein cereblon/Interleukin-1 receptor-associated kinase 4 (Homo sapiens) (Q96SW2 whole entry, looked up): as the sequence (Q96SW2 whole entry partner) above
Sequence of Protein cereblon/Interleukin-1 receptor-associated kinase 4 (Homo sapiens) (Q9NWZ3 whole entry, looked up): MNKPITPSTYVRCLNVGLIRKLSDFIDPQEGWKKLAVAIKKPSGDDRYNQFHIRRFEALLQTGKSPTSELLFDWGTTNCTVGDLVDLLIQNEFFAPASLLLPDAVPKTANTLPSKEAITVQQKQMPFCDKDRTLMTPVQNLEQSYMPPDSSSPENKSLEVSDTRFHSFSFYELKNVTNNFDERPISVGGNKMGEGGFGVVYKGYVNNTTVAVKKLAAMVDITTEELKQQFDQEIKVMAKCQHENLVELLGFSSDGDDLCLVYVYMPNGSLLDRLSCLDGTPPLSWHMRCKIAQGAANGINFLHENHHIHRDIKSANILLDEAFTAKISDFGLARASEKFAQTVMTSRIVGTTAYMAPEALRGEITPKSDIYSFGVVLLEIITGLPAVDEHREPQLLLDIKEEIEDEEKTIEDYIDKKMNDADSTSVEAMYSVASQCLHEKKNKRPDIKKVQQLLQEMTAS
Sequence of RAC-alpha serine/threonine-protein kinase (P31749 whole entry): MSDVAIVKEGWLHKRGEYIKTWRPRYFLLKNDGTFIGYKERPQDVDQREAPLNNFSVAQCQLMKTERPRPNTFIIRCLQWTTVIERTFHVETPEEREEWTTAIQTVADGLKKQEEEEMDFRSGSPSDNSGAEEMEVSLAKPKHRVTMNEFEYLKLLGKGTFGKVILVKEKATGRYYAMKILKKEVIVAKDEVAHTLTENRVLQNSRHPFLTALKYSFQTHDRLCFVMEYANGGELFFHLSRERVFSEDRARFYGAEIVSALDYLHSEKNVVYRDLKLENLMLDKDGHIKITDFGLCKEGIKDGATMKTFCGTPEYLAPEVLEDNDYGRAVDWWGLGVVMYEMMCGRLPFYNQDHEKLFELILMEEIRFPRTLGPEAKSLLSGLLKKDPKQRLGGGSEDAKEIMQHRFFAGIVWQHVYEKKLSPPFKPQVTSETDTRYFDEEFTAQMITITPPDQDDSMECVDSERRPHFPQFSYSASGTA

Take `Cc1nnc2n1-c1sc(C#Cc3cnn(CCCC#Cc4cccc5c4CN(C4CCC(=O)NC4=O)C5=O)c3)c(Cc3ccccc3)c1COC2` (stereo not given): the pIC50 in the assay with MOLM-13 was 10.21; in the assay with MV4-11, 11.08; in the assay on RS4-11, 10.49.

Regarding `NC(=O)CC[C@H](NC(=O)[C@@H]1CC[C@@H]2CCN(C(=O)CCCCCC#Cc3cccc4c3CN(C3CCC(=O)NC3=O)C4=O)C[C@H](NC(=O)c3cc4cc(C(F)(F)P(=O)(O)O)ccc4[nH]3)C(=O)N21)C(=O)NC(c1ccccc1)c1ccccc1` (stereo not given in full), the Activity is over 50% in assay [1], over 50% in [2], over 90% in assay [3] and over 50% in [4].

In the case of `C[C@H]1[C@H](C)CC[C@]2(C(=O)NCCCCOCCNc3cccc4c3C(=O)N(C3CCC(=O)NC3=O)C4=O)CC[C@]3(C)C(=CC[C@@H]4[C@@]5(C)CC[C@H](O)C(C)(C)C5CC[C@]43C)[C@H]12` (stereo not given in full), the pIC50 in the assay on Huh-7, in the assay on A549 and in the assay with HepG2 was 6.64 in each case.

In the case of `Nc1ncnc2c1c(-c1ccc(Oc3ccccc3)cc1)nn2[C@@H]1CCCN(CCOCCOCC(=O)Nc2ccc3c(c2)C(=O)N(C2CCC(=O)NC2=O)C3=O)C1` (stereo not given in full), the DC50 in assay [5] was 14.9 nM; in [6], 14.6 nM.

`COC(=O)C1=CC[C@@]23CC[C@@H]([C@@](C)(/C=C/C=C(\C)C(=O)NCCNc4cccc5c4C(=O)N(C4CCC(=O)NC4=O)C5=O)OC2=O)[C@@]3(OC(C)=O)CC1` (stereo not given in full): on Protein cereblon/Basigin, the DC50 stood at 6720 nM.

Molecule `CC(C)(/C=C(\C#N)C(=O)N1CCC[C@@H](n2nc(-c3ccc(Oc4ccccc4)cc3)c3c(N)ncnc32)C1)CCCCCCCCOc1cccc2c1C(=O)N(C1CCC(=O)NC1=O)C2=O` (stereo not given in full) showed a DC50 in [7] of under 10 nM. The Emax in assay [8] was 90%.

`C[C@@H]1C[C@@H](O)c2ncnc(N3CCN(C(=O)[C@H](CNCCCCCCCCCCCc4cccc5c4CN(C4CCC(=O)NC4=O)C5=O)c4ccc(Cl)cc4)CC3)c21` (stereo not given in full): the pIC50 was 8.46 in assay [9] and 8.70 in assay [10].

`O=C(CCCCCCC(=O)N/N=C/c1ccc(OCCCC#Cc2cccc3c2CN(C2CCC(=O)NC2=O)C3=O)cc1)NO` (stereo not given) gave a DC50 in assay [11] of 1.9 nM.

Take `O=C1CCC(N2Cc3c(NCCCCCCCCCCCNC(=O)c4cc(Cc5n[nH]c(=O)c6ccccc56)ccc4F)cccc3C2=O)C(=O)N1` (stereo not given): the Activity in assay [12] turned out to be 80%.

Regarding `COc1cc2nc(N3CCN(C(=O)c4cn(CCCCOCC(=O)Nc5cccc6c5C(=O)N(C5CCC(=O)NC5=O)C6=O)nn4)CC3)nc(N)c2cc1OC` (stereo not given), the negative-log IC50 (pIC50) in the assay with PC-3 is 5.21.

For the molecule `Cc1c(NC(=O)c2ccc(C(C)(C)C)cc2)cccc1-c1cn(C)c(=O)c(Nc2ccc(C(=O)N3CCN(CCCCCCNC(=O)CNc4cccc5c4C(=O)N(C4CCC(=O)NC4=O)C5=O)CC3)cc2)n1` (stereo not given), in assay [13], the pIC50 was 8.29.

`CC(C)Nc1cc(-n2ccc3cc(C#N)cnc32)ccc1C(=O)N[C@H]1CC[C@H](C(=O)NCCOCCNC(=O)COc2cccc3c2C(=O)N(C2CCC(=O)NC2=O)C3=O)CC1` (stereo not given in full) showed a pKd at Protein cereblon of 6.31. Also, the maximum response (Emax) in [14] was found to be 90%.

Take `CC1(C)CCC(c2ccc(Cl)cc2)=C(CN2CCN(c3ccc(C(=O)NS(=O)(=O)c4ccc(N[C@H](CCN5CCN(C(=O)CCCn6cc(COCCCNc7cccc8c7C(=O)N(C7CCC(=O)NC7=O)C8=O)nn6)CC5)CSc5ccccc5)c(S(=O)(=O)C(F)(F)F)c4)cc3)CC2)C1` (stereo not given in full): the DC50 in assay [15] worked out at 46 nM. The Emax in [16] is 96.2%.

As usually defined, the pIC50 is the negative decadic logarithm of the IC50, by convention in mol/L. By Emax is commonly meant the greatest response seen or fitted, relative to the assay's reference. Broadly, the pKd is −log10 of the Kd, conventionally taken in molar units. Read a high pKd as a low Kd.
